From patent publication US7585977B2, “Selective estrogen receptor modulators containing a phenylsulfonyl group” (Eli Lilly and Company, priority 2005, dated 2009)
pIC50: −log10 of the molar value. Where a name gives a salt, the structure may show the parent alone.

What was measured:
[1] = system: mature, ovariectomized rats; test: 4-Day OVX Rat Uterine Agonist Assay; assay type: in vivo; details: 4 days of treatment, 3 doses
Procedure: Cholesterol levels are also measured to compare relative ability to lower cholesterol with other SERMs. If there is any question of uterine stimulation, histological examination will determine epithelial cell height.

[2] = system: Ishikawa human endometrial tumor cells; test: Ishikawa Cell Proliferation Assay, antagonist mode (block of estradiol stimulation); assay type: cell-based
Procedure: Ishikawa Cell Proliferation Assay: This assay measures cell proliferation (using an alkaline phosphatase readout) in both an agonist mode in the presence of a compound of the present invention alone, and in an antagonist mode in which the ability of a compound of the present invention to block estradiol stimulation of growth is measured.
Ishikawa human endometrial tumor cells are maintained in MEM (minimum essential medium, with Earle's salts and L-Glutamine, Gibco BRL, Gaithersburg, Md.), supplemented with 10% fetal bovine serum (FBS) (V/V), (Gibco BRL). […]
For the agonist mode, plates receive 25 μl/well of assay medium followed by 25 μl/well of a diluted compound of the present invention (at 6× the final concentrations). […] After a 20-minute incubation, plates are read on a spectophotometer at 405 nm.
The data is fitted to a linear interpolation to derive EC50 (for agonist mode) or IC50 (for antagonist mode) values. For the antagonist mode, a % efficacy for each compound is calculated versus E2 (1 nM) alone. For the agonist mode, a % efficacy for each compound is calculated versus the response to tamoxifen.

[3] = system: Ishikawa human endometrial tumor cells; test: Ishikawa Cell Proliferation Assay, agonist mode (alkaline phosphatase readout); assay type: cell-based; details: versus the response to tamoxifen, read-out: relative % efficacy
[4] = system: immature (3 week old) female rats; test: 3-Day Rat Uterus Antagonist Assay; assay type: in vivo; details: oral, 3 days, with E2 0.1 mg/kg
Description: 3-Day Rat Uterus Antagonist Assay: This model for uterine antagonism utilizes immature (3 week old) female rats that are highly sensitive to estrogenic stimulation of the uterus given that their circulating estrogen levels are prepubertal. The uteri from immature rats are fully responsive to exogenous estrogen, yet are quiescent in the absence of exogenous estrogen. Administration of exogenous estrogen to immature rats produces a reliable elevation of uterine weight, which can be used to study uterine antagonist effects.
Test compounds are dissolved in 20% β-hydroxycyclodextrin and administered by oral gavage in a volume of 0.2 mL daily (15 min. prior to the ethynyl estradiol gavage). A vehicle control, E2 alone and E2+raloxifene are also done as controls. The animals are fasted overnight following the final dose. […]
Uterine weight/body weight ratios (UWR) are calculated for each animal. The percent inhibition of the estrogen-induced response is then calculated by the following formula: percent inhibition=100×(UWRestrogen−UWRtest compound/UWRestrogen−UWRcontrol). […] Both the UWR data and the percent inhibition data were statistically analyzed by one way analysis of variance (ANOVA) with post-hoc testing by Fisher's PLSD when indicated by a p≦0.05. […]

CCS(=O)(=O)c1ccc(-c2ccc3cc(O)ccc3c2Oc2ccc(OCCN3CCCCC3)cc2)cc1.Cl [Example 14, 6-(4-Ethanesulfonyl-phenyl)-5-[4-(2-piperidin-1-yl-ethoxy)-phenoxy]-naphthalen-2-ol Hydrochloride]
uterine eosinophil peroxidase (EPO) activity [1]: did not cause dose-related statistically significant increases

CS(=O)(=O)c1cccc(-c2ccc3cc(O)ccc3c2Oc2ccc(OCCN3CCCCC3)cc2)c1 [Example 16, 6-(3-Methanesulfonyl-phenyl)-5-[4-(2-piperidin-1-yl-ethoxy)-phenoxy]-naphthalen-2-ol Hydrochloride]
pIC50 ([2]; 1 nM E2): 7.45
Emax ([2]; versus E2 (1 nM) alone, read-out: % efficacy (inhibition of the 1 nM estradiol response)): 107%

CCS(=O)(=O)c1cc(-c2ccc3cc(O)ccc3c2Oc2ccc(OCCN3CCCCC3)cc2)cc(S(=O)(=O)CC)c1 [Example 56, 6-(3,5-Bis-ethanesulfonyl-phenyl)-5-[4-(2-piperidin-1-yl-ethoxy)-phenoxy]-naphthalen-2-ol Hydrochloride]
Emax [3]: 71.8%

CS(=O)(=O)c1ccc(-c2sc3cc(O)ccc3c2Oc2ccc(OCCN3CCCCC3)cc2)cc1.Cl [Example 92, 2-(4-Methanesulfonyl-phenyl)-3-[4-(2-piperidin-1-yl-ethoxy)-phenoxy]-benzo[b]thiophen-6-ol Hydrochloride]
% antagonism [4]: 62.7%
ED50 [4]: 0.53 mpk
